Here are results for 3 molecules from patent publication US7820697B2, “Compositions and method for reducing TNFα levels” (Celgene Corporation, priority 1998, dated 2010).

By melting point is commonly meant the temperature, or range, at which the solid turns liquid.

`CCc1cccc2c1C(=O)N(C1CCC(=O)NC1=O)C2=O` (stereo not drawn) [Example 6, 2-(2,6-Dioxo(3-piperidyl))-4-ethylisoindoline-1,3-dione] gave a melting point of 235 to 236.5 °C.

The molecule `CN(C)c1cccc2c1C(=O)N(C1CCC(=O)NC1=O)C2=O` (stereo not drawn) [Example 8, 4-Dimethylamino-2-(2,6-dioxo(3-piperidyl))isoindoline-1,3-dione] came in with a melting point of 214.5 to 216.5 °C.

`Cc1cccc2c1C(=O)N(C1(C)CCC(=O)NC1=O)C2=O` (stereo not drawn) [Example 10, 4-Methyl-2-(2,6-dioxo-3-methyl-(3-piperidyl))isoindoline-1,3-dione] had a melting point of 248 to 250 °C.
